Measurements: PubChem BioAssay AID248 (DTP/NCI, 2004)
Where “and” joins values, the source holds several entries; their conditions need not be identical. Identical values can stand only once. Inconclusive results and toxic doses are left out. Rule as the data show it: active = T/C of 150% or more; inactive = T/C below 125%.

Test system: L1210 leukemia ip in BDF1 mice, survival T/C
Experiment: NCI In Vivo Anticancer Drug Screen. Data for tumor model L1210 Leukemia (intraperitoneal) in B6D2F1 (BDF1) mice
Conditions: endpoint: mean survival time, higher = longer survival
Outline: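 In this screen, tumor-bearing mice given compound are compared to those given vehicle, and their survival values are reported as a treated-to-control quotient.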

[1] = dose: 100.0 mg/kg/injection, schedule: Q01DX001 (ip), vehicle: saline
[2] = dose: 200.0 mg/kg/injection, schedule: Q01DX001 (ip), vehicle: saline
[3] = dose: 400.0 mg/kg/injection, schedule: Q01DX001 (ip), vehicle: saline
[4] = dose: 100.0 mg/kg/injection, schedule: Q04DX003 (ip), vehicle: saline with Tween-80
[5] = dose: 200.0 mg/kg/injection, schedule: Q04DX003 (ip), vehicle: saline with Tween-80
[6] = dose: 400.0 mg/kg/injection, schedule: Q04DX003 (ip), vehicle: saline with Tween-80
[7] = dose: 100.0 mg/kg/injection, schedule: Q01DX001 (ip), vehicle: Klucel (hydroxypropylcellulose) (HPC)
[8] = dose: 200.0 mg/kg/injection, schedule: Q01DX001 (ip), vehicle: Klucel (hydroxypropylcellulose) (HPC)
[9] = dose: 100.0 mg/kg/injection, schedule: Q04DX003 (ip), vehicle: Klucel (hydroxypropylcellulose) (HPC)
[10] = dose: 200.0 mg/kg/injection, schedule: Q04DX003 (ip), vehicle: Klucel (hydroxypropylcellulose) (HPC)
[11] = dose: 400.0 mg/kg/injection, schedule: Q04DX003 (ip), vehicle: Klucel (hydroxypropylcellulose) (HPC)
[12] = dose: 100.0 mg/kg/injection, schedule: Q04DX003 (ip), vehicle: saline
[13] = dose: 200.0 mg/kg/injection, schedule: Q04DX003 (ip), vehicle: saline
[14] = dose: 100.0 mg/kg/injection, schedule: Q01DX009 (ip), vehicle: saline with Tween-80
[15] = dose: 200.0 mg/kg/injection, schedule: Q01DX009 (ip), vehicle: saline with Tween-80

Measured: T/C

CCOC(=O)NC1CCc2ccccc21 (configuration not stated)
inactive: [1] 98 % of control | [2] 104 % of control | [3] 93 % of control

COc1cc(C(=O)OC2CC34CCNC35CC(OC5(OC)C2O)c2cc3c(cc24)OCO3)ccc1O (configuration not stated)
inactive: dose: 0.25 mg/kg/injection, schedule: Q01DX015 (ip), vehicle: carboxymethylcellulose (CMC) 100 % of control | dose: 0.5 mg/kg/injection, schedule: Q01DX015 (ip), vehicle: carboxymethylcellulose (CMC) 100 % of control | dose: 0.75 mg/kg/injection, schedule: Q01DX015 (ip), vehicle: carboxymethylcellulose (CMC) 103 % of control | dose: 1.0 mg/kg/injection, schedule: Q01DX009 (ip), vehicle: carboxymethylcellulose (CMC) 95 % of control | dose: 1.0 mg/kg/injection, schedule: Q01DX015 (ip), vehicle: carboxymethylcellulose (CMC) 104 % of control and 108 % of control | dose: 1.25 mg/kg/injection, schedule: Q01DX015 (ip), vehicle: carboxymethylcellulose (CMC) 96 % of control | dose: 1.5 mg/kg/injection, schedule: Q01DX015 (ip), vehicle: carboxymethylcellulose (CMC) 102 % of control | dose: 1.75 mg/kg/injection, schedule: Q01DX015 (ip), vehicle: carboxymethylcellulose (CMC) 98 % of control | dose: 2.0 mg/kg/injection, schedule: Q01DX009 (ip), vehicle: carboxymethylcellulose (CMC) 92 % of control | dose: 2.0 mg/kg/injection, schedule: Q01DX015 (ip), vehicle: carboxymethylcellulose (CMC) 93 % of control | dose: 2.5 mg/kg/injection, schedule: Q01DX015 (ip), vehicle: carboxymethylcellulose (CMC) 96 % of control

O=C(CCCC(=O)N/N=C/c1ccc2c(c1)CCC2)N/N=C/c1ccc2c(c1)CCC2
inactive: [4] 95 % of control | [5] 97 % of control | [6] 90 % of control

c1ccc2nc3c(cc2c1)NCC3
inactive: [7] 95 % of control | [8] 97 % of control | dose: 400.0 mg/kg/injection, schedule: Q01DX001 (ip), vehicle: Klucel (hydroxypropylcellulose) (HPC) 109 % of control

CCOC(=O)CN(C(=O)OCc1ccccc1)N(C)C(=O)OCc1ccccc1
inactive: dose: 25.0 mg/kg/injection, schedule: Q04DX003 (ip), vehicle: saline with Tween-80 101 % of control | dose: 50.0 mg/kg/injection, schedule: Q04DX003 (ip), vehicle: saline with Tween-80 94 % of control | [4] 101 % of control | [5] 97 % of control | [6] 101 % of control

O=C(N/N=C/c1ccc2c(c1)CCC2)c1ccc(S(=O)(=O)O)cc1
inactive: [9] 97 % of control | [10] 104 % of control | [11] 97 % of control

CC1(C)OCC(C2OC3OC(C)(C)OC3C2OS(C)(=O)=O)O1 (configuration not stated)
inactive: dose: 100.0 mg/kg/injection, schedule: Q01DX001 (ip), vehicle: carboxymethylcellulose (CMC) 101 % of control | dose: 200.0 mg/kg/injection, schedule: Q01DX001 (ip), vehicle: carboxymethylcellulose (CMC) 103 % of control | dose: 400.0 mg/kg/injection, schedule: Q01DX001 (ip), vehicle: carboxymethylcellulose (CMC) 97 % of control

O=C1C(NC2CCCCC2)=C(c2ccccc2)c2ccccc21
inactive: dose: 50.0 mg/kg/injection, schedule: Q01DX001 (ip), vehicle: Klucel (hydroxypropylcellulose) (HPC) 94 % of control | [7] 92 % of control | [8] 94 % of control

CN(C)C(CC(=O)c1ccccc1)C(=O)O (configuration not stated)
inactive: [12] 94 % of control | [13] 96 % of control

COc1c2c(cc3c1C(Cl)N(C)CC3)OCO2 (configuration not stated)
inactive: dose: 25.0 mg/kg/injection, schedule: Q01DX009 (ip), vehicle: saline 98 % of control | dose: 25.0 mg/kg/injection, schedule: Q04DX003 (ip), vehicle: saline 103 % of control | dose: 50.0 mg/kg/injection, schedule: Q01DX009 (ip), vehicle: saline 104 % of control | dose: 50.0 mg/kg/injection, schedule: Q04DX003 (ip), vehicle: saline 97 % of control | [12] 98 % of control and 102 % of control

O=S(=O)(Nc1ccc2c3c(cccc13)CC2)c1ccccc1
inactive: [14] 92 % of control | [15] 94 % of control | dose: 400.0 mg/kg/injection, schedule: Q01DX009 (ip), vehicle: saline with Tween-80 103 % of control

CC(=O)Nc1ccc(/C=N\NC(=O)C2CC2)cc1
inactive: [9] 100 % of control | [10] 87 % of control | [11] 87 % of control

O=C1OC(=O)C23CCC(CC2)C2CCC13CC2
inactive: dose: 100.0 mg/kg/injection, schedule: Q01DX009 (ip), vehicle: saline 97 % of control | [12] 110 % of control | dose: 200.0 mg/kg/injection, schedule: Q01DX009 (ip), vehicle: saline 98 % of control | [13] 110 % of control | dose: 400.0 mg/kg/injection, schedule: Q01DX009 (ip), vehicle: saline 93 % of control | dose: 400.0 mg/kg/injection, schedule: Q04DX003 (ip), vehicle: saline 109 % of control

Cc1ccc2[nH]c3c(c2c1)CCCC3
inactive: dose: 50.0 mg/kg/injection, schedule: Q01DX001 (ip), vehicle: saline 101 % of control | [1] 101 % of control | [2] 107 % of control | [3] 101 % of control

O=C(c1ccccc1)c1ccc(O)c2ncccc12
inactive: dose: 100.0 mg/kg/injection, schedule: Q04DX002 (ip), vehicle: Klucel (hydroxypropylcellulose) (HPC) 102 % of control | dose: 200.0 mg/kg/injection, schedule: Q04DX002 (ip), vehicle: Klucel (hydroxypropylcellulose) (HPC) 102 % of control | dose: 400.0 mg/kg/injection, schedule: Q04DX002 (ip), vehicle: Klucel (hydroxypropylcellulose) (HPC) 98 % of control

O=C(O)c1ccccc1/C=C1/Nc2ccccc2C1=O
inactive: dose: 10.0 mg/kg/injection, schedule: Q01DX001 (ip), vehicle: acetone 102 % of control | dose: 20.0 mg/kg/injection, schedule: Q01DX001 (ip), vehicle: acetone 94 % of control

CC1CC(NC(=O)CC#N)CC(C)(C)C1 (configuration not stated)
inactive: dose: 50.0 mg/kg/injection, schedule: Q01DX009 (ip), vehicle: saline with Tween-80 93 % of control | [14] 90 % of control | dose: 100.0 mg/kg/injection, schedule: Q04DX002 (ip), vehicle: saline with Tween-80 94 % of control | [15] 97 % of control | dose: 200.0 mg/kg/injection, schedule: Q04DX002 (ip), vehicle: saline with Tween-80 102 % of control
